Experimental data reported in patent US6060046A, “Antifouling compositions” (Unisearch Limited, priority 1994, dated 2000).

Legend:
[1] = test system: cyprids of the cosmopolitan fouling barnacle Balanus amphitrite; assay: Inhibition of settlement of barnacle cyprid larvae, metabolites dissolved in water; type: in vivo; conditions: 24 hr, based on FIGS. 2 and 3
Protocol: Settlement assays were carried out using cyprids of the cosmopolitan fouling barnacle Balanus amphitrite. The methods used were similar to those used previously (Rittschof et al, 1994, Willemson 1994). Adult brood stock were maintained under controlled light (15 hr light: 9 hr dark) and temperature (28° C.) conditions and fed larvae of the brine shrimp Artemia salina and the diatom Skeletonema costatum. Recently spawned nauplii of B. amphitrite were collected and reared on Skeletonema costatum under the same conditions as adult stocks until reaching cyprid stage after four to five days. Cyprid larvae were subsequently filtered from the culture and maintained in filtered seawater at 5° C. for five days prior to use in settlement assays.
Assays used purified metabolites at concentrations ranging from 100 μg to 0.1 ng per millilitre. […]
Tests were conducted by adding 45-65 cyprids to petri-dishes (47 mm) containing five mls of either test solution, filtered seawater control, or DMSO control. […] The dishes were then rinsed and the percent settlement of cyprids was determined by counting settled and non settled larvae.
The effects of Delisea pulchra metabolites on the settlement of barnacle cyprid larvae, the growth of bacteria and the settlement and germination of algal spores were analysed in two ways. […]

[2] = test system: marine bacterium SW8; assay: Inhibition of bacterial growth, marine isolate SW8; type: cell-based; conditions: c = control
Protocol: Assays to determine the antibacterial effect of Delisea metabolites used the marine isolate SW8 (Neu et al., 1991). […] Purified metabolites 1-4 were dissolved in ethyl acetate (10 mg/ml-10 μg/ml) and were added in volumes of 20 μl to sterilised McCartney bottles containing 19 mls of filter sterilised artificial seawater (ASW) medium supplemented with a trace vitamin and mineral solution (Schneider et al., 1994). Two reference compounds for antibacterial activity, the antibiotic gentamicin (Sigma)and a saturated copper (II) oxide solution, were also used in these tests. Following addition of metabolites, antibiotics or copper, the media was inoculated with SW8. The inoculum for the assay was taken from a continuous culture fermenter operating at a cell density of 10^7 cells/ml. The final concentration of metabolites and antibiotic tested ranged from 10 μg/ml to 10 ng/ml. Control bottles with media only, and media with 20 μl EtOAc added, were inoculated with SW8 and run concurrently with each experiment.
After mixing, 200 μl from each bottle was aseptically transferred to a well in a Nunc Tissue Culture plate (96 well). Plates were incubated aerobically at 30° C. with shaking. Growth was monitored by optical density (600 nm) every hour for 12 hours after which growth was monitored every four hours for a further 18 hours.
The effects of Delisea pulchra metabolites on the settlement of barnacle cyprid larvae, the growth of bacteria and the settlement and germination of algal spores were analysed in two ways. Firstly, we used Analysis of Variance (ANOVA) followed by Tukey's multiple comparison tests to determine which compounds, at which concentrations, had statistically significant effects on the test organisms. Analyses were done using the Statview II statistical package. These procedures enable us to determine the minimum concentration of a compound necessary to have some significant effect, and to look in a detailed way at variation in the effects of different compounds.

Molecule	EC50 + 95% conf. int. (50% settlement inhibition) [1]	Compounds in order of increasing activity (growth inhibition) ([2]; 4 hours, 10 ng/mL)	Compounds in order of increasing activity (growth inhibition) ([2]; 4 hours, 100 ng/mL)	Compounds in order of increasing activity (growth inhibition) ([2]; 4 hours, 1.0 μg/mL)	Compounds in order of increasing activity (growth inhibition) ([2]; 4 hours, 10 μg/mL)	Compounds in order of increasing activity (growth inhibition) ([2]; 11.5 hours, 10 ng/mL)	Compounds in order of increasing activity (growth inhibition) ([2]; 11.5 hours, 100 ng/mL)	Compounds in order of increasing activity (growth inhibition) ([2]; 11.5 hours, 1.0 μg/mL)	Compounds in order of increasing activity (growth inhibition) ([2]; 11.5 hours, 10 μg/mL)	Compounds in order of increasing activity (growth inhibition) ([2]; third panel, time not given, 10 ng/mL)	Compounds in order of increasing activity (growth inhibition) ([2]; third panel, time not given, 100 ng/mL)	Compounds in order of increasing activity (growth inhibition) ([2]; third panel, time not given, 1.0 μg/mL) [c 1 3 4 gent]	Compounds in order of increasing activity (growth inhibition) ([2]; third panel, time not given, 10 μg/mL)
O=S(=O)([O-])[O-].[Cu+2] [CuSO4]	0.40(0.25-0.77) μg/ml												
gentamicin		gent c 4 2 1 3	gent 4 c 2 3 1	c gent 2 1 4 3	c 1 gent 2 3 4	gent c 2 4 1 3	gent 4 2 c 1 3	c gent 1 2 3 4	c 1 2 gent 3 4	gent 4 1 c 3 2	gent 4 3 2 c 1	2	c 1 2 gent 3 4
